Results on two molecules are retold here after US8772348B2, “Materials and methods for pest control” (priority 2009, dated 2014).

The structures appear in SMILES notation. Where two headings read alike, the source gives them in different places.

Data set [1] relates to Anopheles quadrimaculatus. The following applies: for mortality at the 24-hour examination: 24-hour exposure. The source says:
(§1) Briefly, Anopheles quadrimaculatus (Say) is obtained from the United States Department of Agriculture, ARS, Center for Medical, Agricultural and Veterinary Entomology, Gainesville, Fla., and adults are held in the laboratory of the Entomology and Nematology Department, University of Florida with no insecticide exposure or introduction of other insects. The Asian tiger mosquito, Ae. albopictus (Skuse) is obtained from a laboratory colony of the Entomology and Nematology Department, University of Florida.
(§2) Each strain is divided into four sets: three sets as the experiment and the other set as the control. […] The mortality rate is measured after a 2-hour, 4-hour, and 24-hour exposure period. Ataxic mosquitoes are considered dead. The mortality rate and the LC values are determined using the same procedures as is illustrated in Example 2.

A further data set concerns Aedes albopictus. Particulars: for mortality at the 24-hour examination: 24-hour exposure.
Text: as §1, §2

Data set [2] concerns Aedes aegypti. Particulars: for LC50: On camouflage military fabric. As to the method: The mortality rate is measured after a 2-hour, 4-hour and 24-hour exposure period. Ataxic mosquitoes are considered dead.
The ability of Ae. aegypti to recover from insecticidal exposure is also investigated. After a 2-hour exposure, each set of Ae. aegypti is transferred into a separate jar. The mortality rate is measured at two time intervals: first, immediately at the transfer (2 hours after the initial exposure), and second, 22 hours after the transfer (24 hours after the initial exposure).
The mortality rate and the LC values are determined using the same procedures as is illustrated in Example 2.

Data set [3] relates to Aedes aegypti. The following applies: EC formulation on military fabric. The method, then: A commercially-available permethrin 57 g L^−1 EC (Ectiban EC 57; Universal Cooperatives, Minneapolis, Minn.) was included for comparison. Except rosalva, the 50% EC semiochemical formulations were generated by combining 500 mL AI, 430 mL canola oil (Publix, Lakeland, Fla.), 10 mL xylene, 50 mL Triton X-100 (Acros Organics Nev., Fair Lawn, N.J.) and 10 mL Agsolex-8 (International Specialty Products, Wayne, N.J.). The rosalva formulation contained all of the above-mentioned ingredients, with canola oil concentration reduced to 400 mL L^−1, Triton X-100 concentration increased to 75 mL L^−1, and 5 mL L^−1 Antifoam B silicone emulsion (Mallinckrodt Baker, Phillipsburg, N.Y.) included.
Briefly, a piece of 10×10 cm^2 fabric (TenCate Defender™) is impregnated with 2 ml of serially diluted 20-emulsifiable concentrate or 50-emulsifiable concentrate formulations, respectively, and subsequently dried for about an hour. Also, six-to-ten-day-old, never blood-fed, adult female Ae. aegypti mosquitoes are obtained. The mosquitoes are divided into seven sets: three sets as the experiment, three sets as the positive control, and one set as the negative control. Each set consists of 20 mosquitoes. […] The positive control set is exposed to fabric pieces treated with geranyl acetone, rosalva or citronellol. The negative control set is exposed to fabric pieces treated with acetone solution. Throughout the exposure periods, each set is provided with 10% sucrose solution and sufficient air circulation. Ataxic mosquitoes are considered dead. The mortality rate and the LC values are determined using the same procedures as are illustrated in Example 2.

The test system of data set [4] is Stomoxys calcitrans. As to the method: Briefly, one Stomoxys calcitrans strain is collected from the University of Florida dairy unit in Alachua County, Florida, U.S.A. (“the Alachua strain”) and subsequently reared at 27° C. in the laboratory of the Entomology and Nematology Department, University of Florida.
Each strain is divided into four sets: three sets as the experimental treatments and the other set as the control. […] The control set is not exposed to any chemical compound. The mortality rate is measured after a 2-hour, 4-hour, and 24-hour period. Ataxic flies are considered dead. The mortality rate and the LC values are determined using the same procedures as is illustrated in Example 2.

Data set [5] relates to Aedes aegypti. Particulars: for % mortality on various days following treatment: formulation on military fabric at LC99-based concentration, 2 h exposure, mortality 24 h after initial exposure. The method, then: Briefly, after mosquitoes are exposed to formulations for 2 hours at a concentration of LC99, each set is transferred into a separate glass jar, and held for another 24 hours. The mortality rate is measured with new mosquitoes on post-treatment days 2, 3, 5, 8 and 14 (Day 1 starts at 24 hours after the transfer), and is determined using the same procedures as are illustrated in Example 2.
Concentrations were generated from technical-based LC99 values obtained from a 2 h exposure period on military fabric. Fabric was treated on day 0 and was held until exposure on post-treatment day. Mosquitoes were exposed for 2 h, and mortality rate was assessed 24 h after initial exposure. Control contained formulation ingredients without semiochemicals.

Data set [6] concerns Stomoxys calcitrans. As to the method:
Briefly, each fly strain is divided into eight sets: three sets as the experiment, four sets as the positive control, and one set as the negative control. Flies are assayed on unpainted plywood panel boards that have been previously exposed to natural summer weather conditions for at least 10 days. […] The positive control set is treated with permethrin, geranyl acetone, rosalva or citronellol. The negative control set is treated with water. The formulation is applied at a uniform rate of 7.5 ml per 225 cm^2, sufficient to cover the entire panel without dripping. Subsequently, the treated panel boards are dried for about an hour.
In each set, 20 adult flies are placed onto the panel boards. Flies are secured with wooden embroidery hoops, covered with a coarse mesh screen cloth previously sprayed with the respective formulation. After 4 hours, flies are transferred into a clean jar. The mortality rate is measured 24 hours after the transfer, and is determined using the same procedures as are illustrated in Example 2.
Plywood panels (225 cm^2) were treated with chemicals at a rate of 1.67 mgcm^−2. Panels were treated on day 0 and held until exposure on post-treatment day. Mosquitoes were exposed to chemicals for 2 h, and mortality rate was assessed 24 h after initial exposure. Control contained formulation ingredients without semiochemicals.
This is another data set of the same source.

Data set [7] relates to honey bees, Apis mellifera. Kind of data set: Olfactory response assay in MEDUSA olfactometer, honey bee behaviors. The class given is in vivo. The following applies: 0.25 mg semiochemical on perfumery strips; F7.72=0.705, p=0.67; data not shown.

Turning to `CC1(C)CCCC2=C1CC(C=O)CC2` (stereo not drawn) [Cyclemone A, 2-naphthaldehyde, 1,2,3,4,5,6,7,8-octahydro-8,8-dimethyl], the “mortality at the 24-hour examination” value (in data set [1]; with Aedes albopictus) was “All mosquitoes were dead” each time. Further, the LC50 in data set [1] (2 h constant exposure) worked out at 14.29 μg cm^−2; in data set [1] (4 h constant exposure), 12.27 μg cm^−2; in the data set on Aedes albopictus (2 h constant exposure) it was 19.88 μg cm^−2; in the data set with Aedes albopictus (4 h constant exposure) it was 18.72 μg cm^−2; in the data set on Aedes aegypti [2] (2 h constant exposure), 26.03 μg cm^−2; in the data set on Aedes aegypti [2] (2 h exposure then transferred, mortality 24 h after initial exposure), 41.13 μg cm^−2. The LC50 in the data set with Aedes aegypti [2] (4 h constant exposure) is 17.23 μg cm^−2; in the data set on Aedes aegypti [3] (exposure period 2 hours) it was 180.23 μg cm^−2; in the data set with Aedes aegypti [3] (exposure period 4 hours), 172.56 μg cm^−2; with Aedes aegypti [3] (exposure period 24 hours), 136.19 μg cm^−2; with Stomoxys calcitrans [4] (2 h constant exposure), 19.52 μg cm^−2; in the data set with Stomoxys calcitrans [4] (4 h constant exposure), 18.18 μg cm^−2. Also, in the data set with Stomoxys calcitrans [4] (24 h constant exposure), the LC50 is listed as 14.82 μg cm^−2. Also, the mortality rate in the data set on Aedes aegypti [2] (camouflage military fabric, after a 24-hour exposure) was roughly 100%. Besides, the LC90 in the data set with Aedes aegypti [3] (exposure period 2 hours) worked out at 452.11 μg cm^−2; in the data set with Aedes aegypti [3] (exposure period 4 hours), 488.13 μg cm^−2; in the data set on Aedes aegypti [3] (exposure period 24 hours), 330.22 μg cm^−2; in the data set on Stomoxys calcitrans [4] (2 h constant exposure), 31.31 μg cm^−2; in the data set on Stomoxys calcitrans [4] (4 h constant exposure) it was 32.38 μg cm^−2; in the data set with Stomoxys calcitrans [4] (24 h constant exposure), 27.10 μg cm^−2. The “% mortality on various days following treatment” value in the data set on Aedes aegypti [5] (day 1) was determined as 100.00a %; in the data set on Aedes aegypti [5] (day 2), 97.50a %; in the data set with Aedes aegypti [5] (day 3), 92.50a %; in the data set on Aedes aegypti [5] (day 5), 75.00a %; with Aedes aegypti [5] (day 8), 25.50ab %; with Aedes aegypti [5] (day 14) it was 17.50a %. Moreover, the “% mortality” value with Stomoxys calcitrans [6] (S. calcitrans, formulation on plywood panels at 1.67 mg cm^−2, mortality 24 h after) is listed as 100.00a %. Moreover, in data set [7], the “attraction or repellence of honey bees (contact seconds per hour)” value is recorded as “do not attract or repel honey bees”.

In the case of `C/C=C/C(=O)C1=C(C)CCCC1(C)C` [Beta damascone, beta damascone], the “mortality at the 24-hour examination” value (in data set [1]; in the data set on Aedes albopictus) was “All mosquitoes were dead” throughout. In addition, the figures for the mortality rate with Aedes aegypti [2] (in vivo), in the data set on Aedes aegypti [5] (in vivo) and in the data set with Stomoxys calcitrans [6] (in vivo) were roughly 100%, “above 90%” and 99-100%, respectively. Besides, the LC90 came out at 910.52 μg cm^−2 in the data set on Aedes aegypti [3] (exposure period 2 hours); 648.16 μg cm^−2 with Aedes aegypti [3] (exposure period 4 hours); 534.26 μg cm^−2 with Aedes aegypti [3] (exposure period 24 hours); 34.57 μg cm^−2 with Stomoxys calcitrans [4] (2 h constant exposure); 29.68 μg cm^−2 in the data set with Stomoxys calcitrans [4] (4 h constant exposure); 20.33 μg cm^−2 in the data set with Stomoxys calcitrans [4] (24 h constant exposure). In data set [7], the “attraction or repellence of honey bees (contact seconds per hour)” value is “do not attract or repel honey bees”.
